Experimental data from patent US12637474B2, “Five-membered heteroaromatic imidazole compound and use thereof” (Hangzhou Sciwind Biosciences Co., Ltd, priority 2020, dated 2026).

What was measured:
[1] = target: T1, Human-GLP1 (Homo sapiens, UniProt P43220); test: In vitro cell activity test (cAMP detection, GLP-1 HEK293 cells); format: cell-based; conditions: HEK293 cells expressing GLP-1 target
T1 construct: the earlier reading says HEK293
Experimental: Experimental Embodiment 1. In Vitro Cell Activity Test
The cell was constructed by Shanghai WuXi AppTec New Pharmaceutical Development Co., Ltd. The detailed information is as follows.
The compound was formulated to a working concentration of 30 μM with DMSO. In this experiment, the amount of each sample used was 5 μL.
The pH value was adjusted to 7.4 and diluted to 25 mL with HBSS 1×.
Preparation of cAMP detection reagent, 250 μL of cAMP-D2 and 250 μL of anti-cAMP cryptate reagent were added to 4 mL of lysis buffer, and the mixture was mixed gently.
The compound to be tested was 3-fold diluted at 10 points, the initial concentration was 30 μM, and the dilution was completed and treated by Bravo.
The reference compound exenatide was 3-fold diluted at 10 points, the initial concentration was 500 nM, and the dilution was completed and treated by Bravo.
• 1) 100 nL of the compound was transferred to OptiPlate-384 plate using Echo. • 2) The OptiPlate-384 plate was centrifuged at 1000 rpm for 5 seconds. c) Preparation of Cell Suspension • 1) A cryopreservation tube of GLP-1 cells was quickly thawed in 37° C. warm water. • 2) The cell suspension was transferred to a Transfer 15 mL centrifuge tube, and rinsed gently with 10 mL of HBSS. • 3) The centrifuge tube was centrifuged at 1000 rpm for 1 minute at room temperature. • 4) The supernatant was discarded. • 5) The bottom cells were gently homogenized and then gently rinsed with 10 mL of HBSS, centrifuged and settled, the cells were finally re-suspend with experimental buffer. • 6) Cell density and activity were measured by Vi-cell. • 7) The concentration of GLP-1 cells was diluted to 2.0*10^5/mL with experimental buffer. • 8) […] of diluted cell suspension was transferred into OptiPlate-384 plate. • 9) The cells was incubated at room temperature for 30 minutes. d) Detection Reagent was Added: • 1) 10 μL of 800 nM gradient diluted cAMP standard was added to the empty well of OptiPlate-384 plate. • 2) 10 μL of cAMP detection reagent was added. • 3) The OptiPlate-384 plate was covered with TopSeal-A film and incubated at room temperature for 60 minutes.
TopSeal-A was removed and read by EnVision.

[2] = DMPK study in mice; format: in vivo; conditions: male C57 mice, plasma; for Oral DNAUC / bioavailability / Cmax: oral 5 mg/kg; for Oral DNAUC: DNAUC=AUCPO/Dose; for half-life / bioavailability / clearance / Vd / Cmax: mouse; for half-life: oral, 5 mg/kg; for half-life / clearance / Vd: single dose; for Vd: read-out: Vdss
Experimental: Male C57 mice were used as test animals, after a single dose, the plasma concentration of the compound was determined and the pharmacokinetic behavior was evaluated.
Three healthy adult male C57 mice were selected as oral group. In the oral group, the solvent was 20% PEG400/10% solutol/70% water, the compounds to be tested were mixed with the solvent, the mixture was votexed and sonicated to prepare a 0.5 mg/mL clear solution. After oral administration of 5 mg/kg, the whole blood of mice was collected for a certain period of time, and the plasma was prepared, the drug concentration was analyzed by LC-MS/MS, and the pharmacokinetic parameters were calculated by Phoenix WinNonlin software (Pharsight Company, USA).
Note: -- refers to untested; PEG refers to polyethylene glycol; solutol refers to polyethylene glycol-15 hydroxystearate; Cmax refers to maximum concentration; DNAUC=AUCPO/Dose, AUCPO refers to oral exposure and Dose refers to drug dose; Vdss refers to distribution volume; Cl refers to clearance rate; T1/2 refers to half-life.

[3] = test system: MDR1-MDCKII cells; test: Permeability test (MDR1-MDCKII monolayer cell model); format: in vitro ADME; conditions: 2.00 μM, low/high boundaries equivalent to 50% and 80% of human calculated Fa
Experimental: (§1) The objective of this study was to determine the bidirectional permeability and efflux rate of the samples by using MDR1-MDCKII monolayer cell model.
(§2) MDR1-MDCKII cells (11th generation) were inoculated into 96-well cell culture plate and cultured continuously for 4-7 days for transport experiment. The sample was administered in both directions at a concentration of 2.00 μM. After incubation for 150 min, the sample was collected and the content of the test product in the sample was determined by liquid chromatography-tandem mass spectrometry (LC-MS/MS).
(§3) When the administration concentration was 2.00 μM, the average apparent permeability coefficient (Papp) of the test product from the top to the basal end (A-B) direction, the average apparent permeability coefficient from the basal end to the top (B-A) direction, and the efflux ratio (ER) are shown in Table 5. Note: The boundaries of low and high permeability grades were equivalent to 50% and 80% of human “calculated Fa”. The grading criteria were based on WuXi AppTec's routine MDR1-MDCK II permeability test (test concentration was 2 μM, incubation for 2.5 hours).

[4] = test system: MDR1 (P-gp); test: as above; format: in vitro ADME; conditions: dog, MDCK-MDR1, incubation 150 min, read-out: Efflux rate
Experimental: as §1, §2, §3

[5] = as above; format: in vitro ADME; conditions: dog, MDCK-MDR1, incubation 150 min; for Papp B→A at 150 min, 2 μM: basal end to top; for Papp A→B at 150 min, 2 μM: top to basal end
Experimental: as §1, §2, §3

[6] = DMPK study in cynomolgus monkey; format: in vivo; conditions: male cynomolgus monkey, plasma; for Cmax / Oral DNAUC / bioavailability: oral 3 mg/kg; for Vd: read-out: Vdss
Experimental: Male cynomolgus monkey were used as test animals, after a single dose, the plasma concentration of the compound was determined and the pharmacokinetic behavior was evaluated.
Two healthy male cynomolgus monkeys were selected as the oral group. The solvent of the oral group was 20% PEG 400+10% solutol+70% water. The compounds to be tested were mixed with the solvent, the mixture was votexed and sonicated to prepare a 0.5 mg/mL approximately clear solution. The oral dosage of cynomolgus monkeys was 3 mg/kg, after oral administration, the whole blood of cynomolgus monkeys was collected for a certain period of time, and the plasma was prepared, the drug concentration was analyzed by LC-MS/MS, and the pharmacokinetic parameters were calculated by Phoenix WinNonlin software (Pharsight Company, USA).

[7] = target: T2, hERG potassium channel (Homo sapiens, UniProt Q12809); test: hERG test (automatic patch clamp, CHO-hERG cells); format: cell-based; conditions: hERG current; for IC50: Qpatch; for Maximum concentration inhibition rate (%): highest test concentration 40 μM
T2 construct: expressed in transfected cells; host or cells: CHO-hERG cells
Experimental: The effects of compounds on the current of hERG potassium channel (human Ether-a-go-go Related Gene potassium channel) were measured by the automatic patch clamp method.
CHO-hERG cells were cultured in a 175 cm^2 flask, when the cell density reached 60-80%, the culture medium was removed, the cells were washed once with 7 mL of PBS (Phosphate Buffered Saline), and then detached with 3 mL of Detachin. After digestion was completed, 7 mL of culture medium was added to neutralize, then the mixture was centrifuged, the supernatant was aspirated, and then 5 mL of culture medium was added to re-suspend, ensuring 2-5×10^6/mL of cell density.
Extracellular fluid formulation (mM): 140 NaCl, 5 KCl, 1 CaCl2, 1.25 MgCl2, 10 HEPES and 10 Glucose, the pH value was adjusted to 7.4 with NaOH.
Intracellular fluid formulation (mM): 140 KCl, 1 MgCl2, 1 CaCl2, 10 EGTA and 10 HEPES, the pH value was adjusted to 7.2 with KOH.
The process of single cell high impedance sealing and whole cell mode formation were all automatically completed by Qpatch instrument, after obtaining the whole cell recording mode, the cells were clamped at −80 mV, before giving a 5-second+40 mV depolarization stimulus, a 50 millisecond −50 mV prevoltage was given first, and then repolarized to −50 mV for 5 seconds, then returned to −80 mV. This voltage stimulation was applied every 15 seconds and after recording for 2 minutes, extracellular fluid was recordings for 5 minutes, and then the administration process was started, the compound concentration was given from the lowest test concentration, each test concentration was given for 2.5 minutes, and 3 μM of Cisapride as the positive control compound was given after all concentrations were continuously given. At least 3 cells (n>3) were tested at each concentration.
The mother liquor of the compound was diluted with DMSO, and 10 μL of mother liquor of the compound was added to 20 μL of DMSO solution, and was 3-fold diluted continuously to 6 DMSO concentrations. 4 μL of compounds with 6 DMSO concentrations were added to 396 μL of extracellular fluid, 100-fold diluted to 6 intermediate concentrations, and then 80 μL of the compounds with 6 intermediate concentrations were added to 320 μL of extracellular fluid, 5-fold diluted to the final concentration to be tested. The highest test concentration was 40 μM, in a total of 6 concentrations of 40, 13.3, 4.4, 1.48, 0.494 and 0.165 μM respectively. The content of DMSO in the final test concentration was not more than 0.2%, and this concentration of DMSO had no effect on hERG potassium channel. The whole dilution process of compound preparation was completed by Bravo instrument.
The experimental data were analyzed by GraphPad Prism 5.0 software. […]

T1 sequence (P43220 24-463): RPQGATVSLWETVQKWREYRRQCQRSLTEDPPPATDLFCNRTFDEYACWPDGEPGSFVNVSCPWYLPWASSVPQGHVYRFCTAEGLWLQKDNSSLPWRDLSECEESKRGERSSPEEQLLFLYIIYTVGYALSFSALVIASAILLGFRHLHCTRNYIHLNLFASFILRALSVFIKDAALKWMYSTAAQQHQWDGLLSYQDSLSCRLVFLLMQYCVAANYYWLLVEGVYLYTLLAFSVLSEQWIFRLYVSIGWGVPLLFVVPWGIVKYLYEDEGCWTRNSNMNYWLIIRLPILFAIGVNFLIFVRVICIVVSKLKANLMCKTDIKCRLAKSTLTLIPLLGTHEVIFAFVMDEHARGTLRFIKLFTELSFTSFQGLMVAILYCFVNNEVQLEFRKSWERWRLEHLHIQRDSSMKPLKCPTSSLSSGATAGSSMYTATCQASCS
T2 sequence (Q12809 whole entry): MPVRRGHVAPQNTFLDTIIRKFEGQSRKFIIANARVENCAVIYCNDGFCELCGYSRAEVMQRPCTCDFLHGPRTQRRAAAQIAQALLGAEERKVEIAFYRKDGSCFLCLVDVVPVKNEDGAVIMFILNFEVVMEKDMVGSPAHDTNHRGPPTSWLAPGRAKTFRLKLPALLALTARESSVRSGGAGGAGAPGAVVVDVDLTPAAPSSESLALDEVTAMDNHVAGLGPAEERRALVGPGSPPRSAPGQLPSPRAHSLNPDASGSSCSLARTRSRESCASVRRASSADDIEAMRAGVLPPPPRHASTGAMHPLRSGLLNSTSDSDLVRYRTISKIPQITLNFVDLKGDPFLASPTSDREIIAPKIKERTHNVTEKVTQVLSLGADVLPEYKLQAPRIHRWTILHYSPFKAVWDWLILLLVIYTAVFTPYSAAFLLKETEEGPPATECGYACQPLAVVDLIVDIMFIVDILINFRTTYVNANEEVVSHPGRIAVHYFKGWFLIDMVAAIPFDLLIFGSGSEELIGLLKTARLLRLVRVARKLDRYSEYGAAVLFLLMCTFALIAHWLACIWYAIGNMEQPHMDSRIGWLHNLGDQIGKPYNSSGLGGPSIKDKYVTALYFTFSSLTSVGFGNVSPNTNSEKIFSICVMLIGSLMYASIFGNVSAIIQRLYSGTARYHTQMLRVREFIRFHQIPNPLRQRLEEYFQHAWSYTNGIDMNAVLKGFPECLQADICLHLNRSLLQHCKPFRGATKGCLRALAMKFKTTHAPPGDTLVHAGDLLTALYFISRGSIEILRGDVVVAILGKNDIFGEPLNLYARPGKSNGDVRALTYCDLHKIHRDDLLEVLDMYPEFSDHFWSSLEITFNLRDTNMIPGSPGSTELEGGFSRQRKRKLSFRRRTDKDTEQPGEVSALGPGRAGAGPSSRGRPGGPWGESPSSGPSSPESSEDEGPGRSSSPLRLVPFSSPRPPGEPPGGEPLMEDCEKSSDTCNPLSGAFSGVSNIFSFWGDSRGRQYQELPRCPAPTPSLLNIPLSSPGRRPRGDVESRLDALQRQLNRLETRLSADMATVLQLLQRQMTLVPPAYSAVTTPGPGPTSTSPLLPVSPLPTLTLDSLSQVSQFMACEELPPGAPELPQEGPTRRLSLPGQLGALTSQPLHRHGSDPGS

N#Cc1ccc(COc2cccc(C3=CCN(Cc4nc5sc(C(=O)O)cc5n4C[C@@H]4CCO4)CC3)n2)c(F)c1 [WXA001]
EC50 [1]: 0.67 nM | Oral DNAUC [2]: 647.4 nM.h/mpk | half-life [2]: 2.07 h | bioavailability [2]: 220% | clearance [2]: 104 mL/min/kg | Vd [2]: 1.87 L/kg | Cmax [2]: 1760 nM | Rank (permeability grade) [3]: Medium | efflux ratio at 150 min, 2 μM [4]: 1.53 | Papp B→A at 150 min, 2 μM [5]: 3.87 ×10⁻⁶ cm/s | Papp A→B at 150 min, 2 μM [5]: 2.53 ×10⁻⁶ cm/s | Cmax [6]: 28.3 nM | Oral DNAUC [6]: 74 nM.h/mpk | bioavailability [6]: 5.6% | clearance ([6]; single dose): 22.7 mL/min/kg | Vd ([6]; single dose): 0.73 L/kg | IC50 [7]: > 40000 nM | Maximum concentration inhibition rate (%) [7]: 30.4%

N#Cc1ccc(COc2cccc(C3=CCN(Cc4nc5cc(C(=O)O)sc5n4C[C@@H]4CCO4)CC3)n2)c(F)c1 [WXA002]
EC50 [1]: 2.7 nM

N#Cc1ccc(COc2cccc(C3CCN(Cc4nc5sc(C(=O)O)cc5n4C[C@@H]4CCO4)CC3)n2)c(F)c1 [WXA003]
EC50 [1]: 1.07 nM

N#Cc1ccc(COc2cccc(C3CCN(Cc4nc5cc(C(=O)O)sc5n4C[C@@H]4CCO4)CC3)n2)c(F)c1 [WXA004]
EC50 [1]: 1.9 nM

O=C(O)c1cc2c(nc(CN3CC=C(c4cccc(OCc5ccc(Cl)cc5F)n4)CC3)n2C[C@@H]2CCO2)s1 [WXA005]
Oral DNAUC [2]: 301.8 nM.h/mpk | half-life [2]: 2.47 h | bioavailability [2]: 63% | clearance [2]: 63.6 mL/min/kg | Vd [2]: 2.84 L/kg | Cmax [2]: 835 nM | Rank (permeability grade) [3]: High | efflux ratio at 150 min, 2 μM [4]: 1.18 | Papp B→A at 150 min, 2 μM [5]: 8.49 ×10⁻⁶ cm/s | Papp A→B at 150 min, 2 μM [5]: 7.19 ×10⁻⁶ cm/s | Cmax [6]: 245 nM | Oral DNAUC [6]: 889 nM.h/mpk | half-life ([6]; oral, 3 mg/kg, single dose): 4.94 h | bioavailability [6]: 31% | clearance ([6]; single dose): 10.7 mL/min/kg | Vd ([6]; single dose): 0.59 L/kg | IC50 [7]: > 40000 nM | Maximum concentration inhibition rate (%) [7]: 33.1%

O=C(O)c1cc2nc(CN3CC=C(c4cccc(OCc5ccc(Cl)cc5F)n4)CC3)n(C[C@@H]3CCO3)c2s1 [WXA006]
EC50 [1]: 1.44 nM | Oral DNAUC [2]: 307.4 nM.h/mpk | half-life [2]: 1.43 h | Cmax [2]: 865 nM

O=C(O)c1sc2nc(CN3CC=C(c4cccc(OCc5ccc(Cl)cc5F)n4)CC3)n(C[C@@H]3CCO3)c2c1F [WXA007]
EC50 [1]: 0.2 nM

Cc1c(C(=O)O)sc2nc(CN3CC=C(c4cccc(OCc5ccc(Cl)cc5F)n4)CC3)n(C[C@@H]3CCO3)c12 [WXA008]
EC50 [1]: 2.46 nM

O=C(O)c1cc2c(nc(CN3CC=C(c4cccc(OCc5ccc(Cl)cc5F)c4)CC3)n2C[C@@H]2CCO2)s1 [WXA011]
EC50 [1]: 1.94 nM

O=C(O)c1cc2nc(CN3CC=C(c4cccc(OCc5ccc(Cl)cc5F)c4)CC3)n(C[C@@H]3CCO3)c2s1 [WXA012]
EC50 [1]: 9.4 nM

N#Cc1ccc(COc2cccc(C3=CCN(Cc4nc5sc(C(=O)O)cc5n4C[C@@H]4CCO4)CC3)c2)c(F)c1 [WXA013]
EC50 [1]: 2.46 nM

N#Cc1ccc(COc2cccc(C3=CCN(Cc4nc5cc(C(=O)O)sc5n4C[C@@H]4CCO4)CC3)c2)c(F)c1 [WXA014]
EC50 [1]: 9.6 nM

O=C(O)c1cc2c(nc(CN3CC=C(c4ccc(F)c(OCc5ccc(Cl)cc5F)n4)CC3)n2C[C@@H]2CCO2)s1 [WXA015]
EC50 [1]: 1.64 nM

O=C(O)c1cc2nc(CN3CC=C(c4ccc(F)c(OCc5ccc(Cl)cc5F)n4)CC3)n(C[C@@H]3CCO3)c2s1 [WXA016]
EC50 [1]: 3.52 nM
